Data taken from patent US20260317356A1, “SMALL MOLECULE MODULATORS OF OGG1” (AZKARRA THERAPEUTICS, INC., priority 2023, published 2026).

Each molecule was assayed against hOGG1 (Homo sapiens, UniProt O15527) (assay: Biochemical fluorescence assay to measure enzymatic activity of hOGG1 (OGG1/APEX IC50)). Settings: 1 nM OGG1+2 nM APEX+6 nM dsDNA (8-oxo-dG substrate); pH 7.5; RT 40 min; read-out: OGG1/APEX IC50.
Design: Protein His-hOGG1 (12-323) was prepared; His (N); host or cells: E. coli
Method in brief: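 Coupled glycosylase/AP-endonuclease read-out: 8-oxo-dG-containing dsDNA (6 nM) cleaved by 1 nM His-hOGG1 (12-323) plus 2 nM APEX1 over 40 min at room temperature, after 20 min enzyme–compound preincubation; buffer 20 mM Tris pH 7.5, 100 mM KCl, 0.1% BSA, 0.01% Tween. IC50 comes from sigmoidal 3-parameter fitting of % inhibition derived from TAMRA signal.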

Chain of hOGG1 (O15527 12-323): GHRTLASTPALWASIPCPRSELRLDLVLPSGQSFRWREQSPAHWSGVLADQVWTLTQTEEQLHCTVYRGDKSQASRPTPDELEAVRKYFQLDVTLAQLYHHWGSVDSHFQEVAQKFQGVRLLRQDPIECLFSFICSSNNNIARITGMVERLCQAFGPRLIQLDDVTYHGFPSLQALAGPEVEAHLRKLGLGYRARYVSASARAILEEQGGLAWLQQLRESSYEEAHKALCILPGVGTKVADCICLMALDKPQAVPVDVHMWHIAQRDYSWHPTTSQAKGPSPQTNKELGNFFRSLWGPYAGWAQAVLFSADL

Compound	IC50
Cc1cccc2c1CN([C@H]1CC[C@@H](C(=O)Nc3ccc(=O)n(C)c3)CC1)C2=O [Example 246, (1s,4s)-4-(4-Methyl-1-oxoisoindolin-2-yl)-N-(1-methyl-6-oxo-1,6-dihydropyridin-3-yl)cyclohexanecarboxamide]	> 10 µM
CCOC(=O)c1ccc2c(c1)CN([C@H]1CC[C@@H](C(=O)Nc3ccc(C)c(OC)c3)CC1)C2=O [Example 171, Ethyl 2-((1s,4s)-4-(3-methoxy-4-methylphenylcarbamoyl)cyclohexyl)-1-oxoisoindoline-5-carboxylate]	> 10 µM
COc1cc(NC(=O)[C@@H]2[C@@H]3C[C@@H](N4Cc5c(Br)cccc5C4=O)C[C@@H]32)ccc1C (single isomer, unassigned) [Example 269]	1 to 10 µM
COc1cc(NC(=O)[C@H]2CC[C@@H](N3Cc4c(C)cccc4C3=O)CC2)ccc1C#N [Example 265, (1s,4s)-N-(4-Cyano-3-methoxyphenyl)-4-(4-methyl-1-oxoisoindolin-2-yl)cyclohexanecarboxamide]	> 10 µM
COc1cc(NC(=O)[C@H]2CC[C@@H](N3Cc4c(C=O)cccc4C3=O)CC2)ccc1C [Example 162, (1s,4s)-4-(4-Formyl-1-oxoisoindolin-2-yl)-N-(3-methoxy-4-methylphenyl)cyclohexanecarboxamide]	1 to 10 µM
COc1cc(NC(=O)[C@H]2CC[C@@H](N3Cc4c(C)cc(C#N)cc4NC3=O)CC2)ccc1C [Example 31, (1s,4s)-4-(7-Cyano-5-methyl-2-oxo-1,2-dihydroquinazolin-3(4H)-yl)-N-(3-methoxy-4-methylphenyl)cyclohexanecarboxamide]	< 0.1 µM
COc1cc(NC(=O)[C@H]2CC[C@@H](N3Cc4c(Br)cc(NC(=O)Cn5ccnc5)cc4C3=O)CC2)ccc1C [Example 196, (1s,4s)-4-(6-(2-(1H-Imidazol-1-yl)acetamido)-4-bromo-1-oxoisoindolin-2-yl)-N-(3-methoxy-4-methylphenyl)cyclohexanecarboxamide]	0.1 to 1 µM
Cc1ccc(NC(=O)[C@H]2CC[C@@H](N3Cc4c(C)cccc4C3=O)CC2)cc1CO [Example 126, (1s,4s)-N-(3-(Hydroxymethyl)-4-methylphenyl)-4-(4-methyl-1-oxoisoindolin-2-yl)cyclohexane-1-carboxamide]	1 to 10 µM
COc1cc(NC(=O)[C@H]2CC[C@@H](N3Cc4c(C)cc(OCC5(F)CNC5)cc4C3=O)CC2)ccc1C [Example 141, (1s,4s)-4-(6-((3-Fluoroazetidin-3-yl)methoxy)-4-methyl-1-oxoisoindolin-2-yl)-N-(3-methoxy-4-methylphenyl)cyclohexanecarboxamide]	< 0.1 µM
CCc1cccc2c1CN([C@H]1CC[C@@H](C(=O)Nc3ccc(C)c(OC)c3)CC1)C2=O [Example 156, (1s,4s)-4-(4-Ethyl-1-oxoisoindolin-2-yl)-N-(3-methoxy-4-methylphenyl)cyclohexanecarboxamide]	1 to 10 µM
COc1cc(NC(=O)[C@H]2CC[C@@H](N3Cc4c(C)cc(N)cc4NC3=O)CC2)ccc1C [Example 76, (1s,4s)-4-(7-amino-5-methyl-2-oxo-1,2-dihydroquinazolin-3(4H)-yl)-N-(3-methoxy-4-methylphenyl)cyclohexanecarboxamide]	< 0.1 µM
COc1cc(NC(=O)[C@H]2CC[C@@H](N3Cc4c(C)cc(CO)cc4NC3=O)CC2)ccc1C [Example 81, (1s,4s)-4-(7-(hydroxymethyl)-5-methyl-2-oxo-1,2-dihydroquinazolin-3(4H)-yl)-N-(3-methoxy-4-methylphenyl)cyclohexanecarboxamide]	< 0.1 µM
COc1cc(NC(=O)[C@H]2CC[C@@H](N3Cc4c(C)cccc4NC3=O)CC2)ccc1C [Example 69, (1s,4s)-N-(3-methoxy-4-methylphenyl)-4-(5-methyl-2-oxo-1,2-dihydroquinazolin-3(4H)-yl)cyclohexanecarboxamide]	< 0.1 µM
Cc1cccc2c1CN([C@H]1CC[C@@H](C(=O)Nc3cc4ccccc4[nH]3)CC1)C2=O [Example 273, (1s,4s)-N-(1H-indol-2-yl)-4-(4-methyl-1-oxoisoindolin-2-yl)cyclohexanecarboxamide]	0.1 to 1 µM
COc1cc(NC(=O)[C@H]2CC[C@@H](N3Cc4c(C)cc(OCCN5CCC5)cc4C3=O)CC2)ccc1C [Example 261, (1s,4s)-4-(6-(2-(Azetidin-1-yl)ethoxy)-4-methyl-1-oxoisoindolin-2-yl)-N-(3-methoxy-4-methylphenyl)cyclohexanecarboxamide]	< 0.1 µM
Cc1cc(NCCN(C)C)cc2c1CN([C@H]1CC[C@@H](C(=O)Nc3nc(CCO)cs3)CC1)C2=O [Example 131, (1s,4s)-4-(6-((2-(Dimethylamino)ethyl)amino)-4-methyl-1-oxoisoindolin-2-yl)-N-(4-(2-hydroxyethyl)thiazol-2-yl)cyclohexane-1-carboxamide]	1 to 10 µM
Cc1cccc2c1CN([C@H]1CC[C@@H](C(=O)Nc3ccc(Cl)c(C#N)c3)CC1)C2=O [Example 263, (1s,4s)-N-(4-Chloro-3-cyanophenyl)-4-(4-methyl-1-oxoisoindolin-2-yl)cyclohexanecarboxamide]	0.1 to 1 µM
COc1cc(NC(=O)[C@H]2CC[C@@H](N3Cc4c(Br)cc(NCCCN(C)C)cc4C3=O)CC2)ccc1C [Example 205, (1s,4s)-4-(4-Bromo-6-(3-(dimethylamino)propylamino)-1-oxoisoindolin-2-yl)-N-(3-methoxy-4-methylphenyl)cyclohexanecarboxamide]	< 0.1 µM
COc1cc(NC(=O)[C@H]2CC[C@@H](N3Cc4c(C)cc([N+](=O)[O-])cc4C3=O)CC2)ccc1C [Example 167, (1s,4s)-N-(3-Methoxy-4-methylphenyl)-4-(4-methyl-6-nitro-1-oxoisoindolin-2-yl)cyclohexanecarboxamide]	< 0.1 µM

Continued, values first:

IC50	Compound
1 to 10 µM	Cc1ccc(NC(=O)[C@H]2CC[C@@H](N3Cc4c(C)cccc4C3=O)CC2)c(O)c1 [Example 230, (1s,4s)-N-(2-Hydroxy-4-methylphenyl)-4-(4-methyl-1-oxoisoindolin-2-yl)cyclohexanecarboxamide]
1 to 10 µM	Cc1cccc2c1CN([C@H]1CC[C@@H](C(=O)Nc3ccc4nc[nH]c4c3)CC1)C2=O [Example 272, (1s,4s)-N-(1H-benzo[d]imidazol-6-yl)-4-(4-methyl-1-oxoisoindolin-2-yl)cyclohexanecarboxamide]
0.1 to 1 µM	COc1ncc(NC(=O)[C@H]2CC[C@@H](N3Cc4c(C)cccc4C3=O)CC2)cc1C [Example 244, (1s,4s)-N-(6-Methoxy-5-methylpyridin-3-yl)-4-(4-methyl-1-oxoisoindolin-2-yl)cyclohexanecarboxamide]
< 0.1 µM	COc1cc(NC(=O)[C@H]2CC[C@@H](N3Cc4c(C)cc(C5COC5)cc4NC3=O)CC2)ccc1C [Example 33, (1s,4s)-N-(3-Methoxy-4-methylphenyl)-4-(5-methyl-7-(oxetan-3-yl)-2-oxo-1,2-dihydroquinazolin-3(4H)-yl)cyclohexanecarboxamide]
< 0.1 µM	COc1cc(NC(=O)[C@H]2CC[C@@H](N3Cc4c(C)ccc(C)c4NC3=O)CC2)ccc1C [Example 25, (1s,4s)-4-(5,8-Dimethyl-2-oxo-1,2-dihydroquinazolin-3(4H)-yl)-N-(3-methoxy-4-methylphenyl)cyclohexanecarboxamide]
< 0.1 µM	COc1ccc(NC(=O)[C@]2(C)CC[C@H](N3Cc4c(C)cccc4NC3=O)CC2)cc1C (single isomer, unassigned) [Example 105, (1s,4s)-N-(4-methoxy-3-methylphenyl)-1-methyl-4-(5-methyl-2-oxo-1,2-dihydroquinazolin-3(4H)-yl)cyclohexanecarboxamide]
< 0.1 µM	COc1cc(NC(=O)[C@H]2CC[C@@H](N3Cc4c(C)cc(N5CC(OC)C5)cc4NC3=O)CC2)ccc1C [Example 29, (1s,4s)-N-(3-Methoxy-4-methylphenyl)-4-(7-(3-methoxyazetidin-1-yl)-5-methyl-2-oxo-1,2-dihydroquinazolin-3(4H)-yl)cyclohexanecarboxamide]
< 0.1 µM	COc1cc(NC(=O)[C@H]2CC[C@@H](N3Cc4c(Br)cc(NC5CNC5)cc4C3=O)CC2)ccc1C [Example 180, (1s,4s)-4-(6-(Azetidin-3-ylamino)-4-bromo-1-oxoisoindolin-2-yl)-N-(3-methoxy-4-methylphenyl)cyclohexanecarboxamide]
0.1 to 1 µM	Cc1cccc2c1CN([C@H]1CC[C@@H](C(=O)Nc3ccc4cc[nH]c4c3)CC1)C(=O)N2 [Example 113, (1s,4s)-N-(1H-indol-6-yl)-4-(5-methyl-2-oxo-1,2-dihydroquinazolin-3(4H)-yl)cyclohexanecarboxamide]
> 10 µM	O=C1c2cccc(Br)c2CN1[C@H]1CC[C@@H](C(=O)Nc2ccc3c(c2)OC(F)(F)O3)CC1 [Example 186, (1s,4s)-4-(4-Bromo-1-oxoisoindolin-2-yl)-N-(2,2-difluorobenzo[d][1,3]dioxol-5-yl)cyclohexanecarboxamide]
1 to 10 µM	O=C1c2cccc(Br)c2CN1[C@H]1CC[C@@H](C(=O)Nc2ccc3c(c2)OCCO3)CC1 [Example 191, (1s,4s)-4-(4-Bromo-1-oxoisoindolin-2-yl)-N-(2,3-dihydrobenzo[b][1,4]dioxin-6-yl)cyclohexanecarboxamide]
> 10 µM	O=C(Nc1ccc(I)cc1)N1CCC(N2Cc3c(Br)cccc3C2=O)CC1 [Example 182, 4-(4-Bromo-1-oxoisoindolin-2-yl)-N-(4-iodophenyl) piperidine-1-carboxamide]
0.1 to 1 µM	COc1cc(NC(=O)[C@H]2CC[C@@H](n3[nH]c4c(Br)cccc4c3=O)CC2)ccc1C (single isomer, unassigned) [Example 160, (1s,4s)-4-(7-Bromo-3-oxo-1H-indazol-2(3H)-yl)-N-(3-methoxy-4-methylphenyl)cyclohexanecarboxamide]
